Test results as given in the supplement of paper PMC11451515.

Tests used:
Details in all cases: 48 h
NOMO1 [1] = assay: cell viability relative to DMSO control; higher = less cytotoxic
Procedure, shortened: (§1)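 Viability, reported as a per-plate percentage of DMSO wells with cell-free wells as background, came from CellTiter-Glo One luminescence. Reading took place after 48 h at 37°C. Before that, NOMO1 or SEM (500 cells/well) or P12-Ichikawa (1000 cells/well) leukemia cells, adapted for at least four passages in each medium, were seeded in 1536-well plates (5 μl) and pin-dosed with library compounds in DMSO, 47 μM to 0.79 nM over 11 threefold points.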

P12-Ichikawa [2] = assay: as above
Procedure, shortened: as §1

SEM cells [3] = assay: as above
Procedure, shortened: as §1

NOMO1 [4] = assay: AUC of viability dose-response curve (% viability x log10 dose units); higher = less sensitive
Procedure, shortened: (§2)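 Viability of medium-adapted leukemia cells was measured by CellTiter-Glo One luminescence after 48 h at 37°C with library compounds in DMSO. Doses were 11 threefold steps from 47 μM to 0.79 nM, in 1536-well plates at 500 or 1000 cells/well. Signals were normalised per plate to DMSO and cell-free wells and fitted with a four-parameter log-logistic model on log10 dose. Area under the curve was integrated by trapezoidal rule, with curves exceeding full viability scaled and failed quality-control curves removed.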

P12-Ichikawa [5] = assay: as above
Procedure, shortened: as §2

SEM cells [6] = assay: as above
Procedure, shortened: as §2

CC1=CC=CC=C1CN2C(=O)C/3=C(/CCN(CC4=CC=CC=C4)C3)N\5CC\N=C25
cell viability [%]
Details	NOMO1 [1]	P12-Ichikawa [2]	SEM cells [3]
HPLM + 10% dialyzed FBS, 0.000781 µM	–	124	113
HPLM + 10% dialyzed FBS, 0.00234 µM	–	120	121
HPLM + 10% dialyzed FBS, 0.00702 µM	–	119	125
HPLM + 10% dialyzed FBS, 0.0211 µM	–	119	115
HPLM + 10% dialyzed FBS, 0.0632 µM	–	119	117
HPLM + 10% dialyzed FBS, 0.19 µM	–	112	120
HPLM + 10% dialyzed FBS, 0.569 µM	–	107	115
HPLM + 10% dialyzed FBS, 1.71 µM	–	106	110
HPLM + 10% dialyzed FBS, 5.12 µM	–	81.9	94
HPLM + 10% dialyzed FBS, 15.4 µM	–	53.4	25.3
HPLM + 10% dialyzed FBS, 46.1 µM	–	57.5	19.6
RPMI 5 mM glucose + 10% FBS, 0.000781 µM	109	129	129
RPMI 5 mM glucose + 10% FBS, 0.00234 µM	118	109	119
RPMI 5 mM glucose + 10% FBS, 0.00702 µM	121	117	114
RPMI 5 mM glucose + 10% FBS, 0.0211 µM	124	119	101
RPMI 5 mM glucose + 10% FBS, 0.0632 µM	134	127	114
RPMI 5 mM glucose + 10% FBS, 0.19 µM	113	114	109
RPMI 5 mM glucose + 10% FBS, 0.569 µM	116	118	97.1
RPMI 5 mM glucose + 10% FBS, 1.71 µM	119	122	95.9
RPMI 5 mM glucose + 10% FBS, 5.12 µM	59	79.8	50.9
RPMI 5 mM glucose + 10% FBS, 15.4 µM	20.1	45.7	13.2
RPMI 5 mM glucose + 10% FBS, 46.1 µM	21.4	45.2	9.39
RPMI 5 mM glucose + 10% dialyzed FBS, 0.000781 µM	132	–	127
RPMI 5 mM glucose + 10% dialyzed FBS, 0.00234 µM	118	–	121
RPMI 5 mM glucose + 10% dialyzed FBS, 0.00702 µM	122	–	119
RPMI 5 mM glucose + 10% dialyzed FBS, 0.0211 µM	126	–	119
RPMI 5 mM glucose + 10% dialyzed FBS, 0.0632 µM	120	–	141
RPMI 5 mM glucose + 10% dialyzed FBS, 0.19 µM	122	–	119
RPMI 5 mM glucose + 10% dialyzed FBS, 0.569 µM	133	–	136
RPMI 5 mM glucose + 10% dialyzed FBS, 1.71 µM	86.6	–	133
RPMI 5 mM glucose + 10% dialyzed FBS, 5.12 µM	69.9	–	58.4
RPMI 5 mM glucose + 10% dialyzed FBS, 15.4 µM	25.9	–	19.6
RPMI 5 mM glucose + 10% dialyzed FBS, 46.1 µM	23.6	–	19.8

AUC of viability dose-response curve
Details	NOMO1 [4]	P12-Ichikawa [5]	SEM cells [6]
HPLM + 10% dialyzed FBS	388	418	410
RPMI 5 mM glucose + 10% FBS	393	417	376
RPMI 5 mM glucose + 10% dialyzed FBS	384	418	391

N=C(N)NC(=O)c1nc(Cl)c(N)nc1N
cell viability [%]
Details	NOMO1 [1]	P12-Ichikawa [2]	SEM cells [3]
HPLM + 10% dialyzed FBS, 0.000781 µM	110	106	101
HPLM + 10% dialyzed FBS, 0.00234 µM	114	116	104
HPLM + 10% dialyzed FBS, 0.00702 µM	132	114	120
HPLM + 10% dialyzed FBS, 0.0211 µM	133	127	111
HPLM + 10% dialyzed FBS, 0.0632 µM	134	120	114
HPLM + 10% dialyzed FBS, 0.19 µM	130	116	104
HPLM + 10% dialyzed FBS, 0.569 µM	133	130	136
HPLM + 10% dialyzed FBS, 1.71 µM	54.1	120	114
HPLM + 10% dialyzed FBS, 5.12 µM	35.8	59.8	129
HPLM + 10% dialyzed FBS, 15.4 µM	35	16.9	124
HPLM + 10% dialyzed FBS, 46.1 µM	36.9	9.59	123
RPMI 5 mM glucose + 10% FBS, 0.000781 µM	–	–	101
RPMI 5 mM glucose + 10% FBS, 0.00234 µM	–	–	107
RPMI 5 mM glucose + 10% FBS, 0.00702 µM	–	–	108
RPMI 5 mM glucose + 10% FBS, 0.0211 µM	–	–	108
RPMI 5 mM glucose + 10% FBS, 0.0632 µM	–	–	118
RPMI 5 mM glucose + 10% FBS, 0.19 µM	–	–	119
RPMI 5 mM glucose + 10% FBS, 0.569 µM	–	–	117
RPMI 5 mM glucose + 10% FBS, 1.71 µM	–	–	113
RPMI 5 mM glucose + 10% FBS, 5.12 µM	–	–	113
RPMI 5 mM glucose + 10% FBS, 15.4 µM	–	–	114
RPMI 5 mM glucose + 10% FBS, 46.1 µM	–	–	120
RPMI 5 mM glucose + 10% dialyzed FBS, 0.000781 µM	112	104	101
RPMI 5 mM glucose + 10% dialyzed FBS, 0.00234 µM	134	114	122
RPMI 5 mM glucose + 10% dialyzed FBS, 0.00702 µM	123	115	110
RPMI 5 mM glucose + 10% dialyzed FBS, 0.0211 µM	134	124	108
RPMI 5 mM glucose + 10% dialyzed FBS, 0.0632 µM	133	115	126
RPMI 5 mM glucose + 10% dialyzed FBS, 0.19 µM	129	126	124
RPMI 5 mM glucose + 10% dialyzed FBS, 0.569 µM	136	130	120
RPMI 5 mM glucose + 10% dialyzed FBS, 1.71 µM	72.5	128	126
RPMI 5 mM glucose + 10% dialyzed FBS, 5.12 µM	33.3	116	119
RPMI 5 mM glucose + 10% dialyzed FBS, 15.4 µM	29.2	56.1	116
RPMI 5 mM glucose + 10% dialyzed FBS, 46.1 µM	29.1	17.5	121

AUC of viability dose-response curve
Details	NOMO1 [4]	P12-Ichikawa [5]	SEM cells [6]
HPLM + 10% dialyzed FBS	364	389	446
RPMI 5 mM glucose + 10% FBS	342	393	464
RPMI 5 mM glucose + 10% dialyzed FBS	365	430	453

COc1cc2c(Nc3ccc(Cl)c(Cl)c3F)ncnc2cc1OC[C@@H]1C[C@@H]2CN(C)C[C@@H]2C1
cell viability [%]
Details	NOMO1 [1]	P12-Ichikawa [2]	SEM cells [3]
HPLM + 10% dialyzed FBS, 0.000781 µM	109	105	105
HPLM + 10% dialyzed FBS, 0.00234 µM	113	115	118
HPLM + 10% dialyzed FBS, 0.00702 µM	116	118	121
HPLM + 10% dialyzed FBS, 0.0211 µM	119	126	120
HPLM + 10% dialyzed FBS, 0.0632 µM	115	119	98.8
HPLM + 10% dialyzed FBS, 0.19 µM	88.4	111	113
HPLM + 10% dialyzed FBS, 0.569 µM	81.2	109	100
HPLM + 10% dialyzed FBS, 1.71 µM	73	83.2	93.3
HPLM + 10% dialyzed FBS, 5.12 µM	50.7	71.1	56
HPLM + 10% dialyzed FBS, 15.4 µM	53.4	49.5	47
HPLM + 10% dialyzed FBS, 46.1 µM	20.7	10.1	10.1
RPMI 5 mM glucose + 10% FBS, 0.000781 µM	114	–	98
RPMI 5 mM glucose + 10% FBS, 0.00234 µM	121	–	117
RPMI 5 mM glucose + 10% FBS, 0.00702 µM	131	–	121
RPMI 5 mM glucose + 10% FBS, 0.0211 µM	130	–	144
RPMI 5 mM glucose + 10% FBS, 0.0632 µM	127	–	118
RPMI 5 mM glucose + 10% FBS, 0.19 µM	126	–	118
RPMI 5 mM glucose + 10% FBS, 0.569 µM	119	–	101
RPMI 5 mM glucose + 10% FBS, 1.71 µM	117	–	64.2
RPMI 5 mM glucose + 10% FBS, 5.12 µM	87.9	–	44.4
RPMI 5 mM glucose + 10% FBS, 15.4 µM	101	–	48
RPMI 5 mM glucose + 10% FBS, 46.1 µM	22.5	–	5.51
RPMI 5 mM glucose + 10% dialyzed FBS, 0.000781 µM	101	–	112
RPMI 5 mM glucose + 10% dialyzed FBS, 0.00234 µM	124	–	109
RPMI 5 mM glucose + 10% dialyzed FBS, 0.00702 µM	125	–	133
RPMI 5 mM glucose + 10% dialyzed FBS, 0.0211 µM	118	–	129
RPMI 5 mM glucose + 10% dialyzed FBS, 0.0632 µM	124	–	119
RPMI 5 mM glucose + 10% dialyzed FBS, 0.19 µM	123	–	124
RPMI 5 mM glucose + 10% dialyzed FBS, 0.569 µM	112	–	110
RPMI 5 mM glucose + 10% dialyzed FBS, 1.71 µM	98.3	–	75.8
RPMI 5 mM glucose + 10% dialyzed FBS, 5.12 µM	79.1	–	67
RPMI 5 mM glucose + 10% dialyzed FBS, 15.4 µM	83.9	–	55.7
RPMI 5 mM glucose + 10% dialyzed FBS, 46.1 µM	24.3	–	6.25

AUC of viability dose-response curve
Details	NOMO1 [4]	P12-Ichikawa [5]	SEM cells [6]
HPLM + 10% dialyzed FBS	355	388	383
RPMI 5 mM glucose + 10% FBS	437	388	358
RPMI 5 mM glucose + 10% dialyzed FBS	418	401	379
